Experimental data published in patent publication US11802110B2, “2-amino-N-(arylsulfinyl)-acetamide compounds as inhibitors of bacterial aminoacyl-tRNA synthetase” (priority 2016, dated 2023).
Converted amounts (≈) assume the structure as drawn. “And” between values parts separate entries of the source, which are not always exact repeats. Equal values may be shown once. Read-outs that look alike come from different tables or passages of the source.

What was measured:
E. Coli LeuRS = E. Coli LeuRS (Escherichia coli (strain K12), UniProt P07813); test: Study 2 - Isothermal titration calorimetry (ITC); assay type: binding; conditions: 25° C., pH 7.5, mean ± SD
Sequence of E. Coli LeuRS (P07813 whole entry): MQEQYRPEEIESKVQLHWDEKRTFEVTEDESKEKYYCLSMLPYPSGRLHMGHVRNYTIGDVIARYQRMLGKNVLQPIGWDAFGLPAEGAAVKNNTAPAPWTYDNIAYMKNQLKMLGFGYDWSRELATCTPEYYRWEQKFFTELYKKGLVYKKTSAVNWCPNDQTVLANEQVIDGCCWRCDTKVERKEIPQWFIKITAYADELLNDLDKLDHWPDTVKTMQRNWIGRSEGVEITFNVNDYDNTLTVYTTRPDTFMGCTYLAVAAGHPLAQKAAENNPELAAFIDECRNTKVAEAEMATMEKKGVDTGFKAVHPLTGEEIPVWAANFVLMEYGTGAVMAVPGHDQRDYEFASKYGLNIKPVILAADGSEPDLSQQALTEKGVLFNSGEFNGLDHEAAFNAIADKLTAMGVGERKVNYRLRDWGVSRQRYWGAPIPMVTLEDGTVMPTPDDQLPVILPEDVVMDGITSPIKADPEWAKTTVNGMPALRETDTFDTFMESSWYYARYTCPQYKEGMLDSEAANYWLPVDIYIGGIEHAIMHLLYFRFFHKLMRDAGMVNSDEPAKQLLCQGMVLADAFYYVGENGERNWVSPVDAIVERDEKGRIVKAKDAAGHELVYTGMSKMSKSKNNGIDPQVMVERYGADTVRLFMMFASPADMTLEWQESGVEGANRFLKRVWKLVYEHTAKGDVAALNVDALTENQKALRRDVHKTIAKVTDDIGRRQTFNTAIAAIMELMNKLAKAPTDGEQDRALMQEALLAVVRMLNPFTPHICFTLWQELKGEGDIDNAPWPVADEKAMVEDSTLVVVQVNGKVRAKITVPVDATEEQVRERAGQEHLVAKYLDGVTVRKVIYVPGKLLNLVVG
Experimental: (§1) Escherichia coli BL21(DE3) cells transformed with plasmid pQE-60 containing the open-reading frame sequence of one targeted aaRS (i.e., LeuRS) were induced with 1 mM IPTG (isopropyl β-D-1-thiogalactopyranoside) for 3 hours at 37° C. Bacterial cells were harvested and lysed with 20 mM HEPES (4-(2-hydroxyethyl)-1-piperazinylethane-sulfonic acid) (pH 7.5), 300 mM NaCl, 15 mM imidazole and 1 mM DTT (1,4-dithio-D-threitol). The pathogenic aaRS was first purified by nickel affinity standard chromatography. The eluted protein was concentrated and then further purified by gel filtration using 50 mM HEPES (pH 7.5), 150 mM NaCl buffer.
ITC studies were carried out using a Microcal ITC200 instrument (GE Healthcare). Protein concentration was determined by spectrophotometry by measuring the absorbance at 280 nm using a theoretical molar extinction coefficient of 169,140 M^−1cm^−1. Ligand stock solutions were prepared in DMSO at 62.5 mM concentration. The titrations were performed at 25° C. with 7.5-100 μM E. Coli LeuRS in 50 mM HEPES, 150 mM NaCl, pH 7.5 buffer containing 1% DMSO (v/v). The protein solution in the 280 μL sample cell was titrated with the inhibitor solution (diluted to 75-3000 μM in the same buffer as the protein) using 1-2 μL injections every 120-140 seconds. All titrations were repeated at least two times. To correct for heats of dilution and mixing, the final baseline consisting of small peaks of identical size at the end of each experiment was subtracted. The experimental data were fitted to a theoretical titration curve (one site model) using MicroCal Origin 7 SR4 software.
Note that Compounds R-4.1 and S-4.1 (in Table 15, below) correspond to Compounds V-i and V-ii (in Tables 13 and 14, above), respectively.

[1] = tested on: Haemophilus influenzae ATCC 49247; test: Study 4 - MIC by broth micro-dilution (CLSI); assay type: cell-based; conditions: Haemophilus influenzae, ATCC49247; G = H. influenzae ATCC 49247; read-out: MIC
Experimental: (§2) Minimum Inhibitory Concentrations (MICs) were determined by the broth micro-dilution method performed according to Clinical Laboratory Standards Institute guidelines. For testing, 5 mg/mL DMSO solutions were prepared by dissolving solids in DMSO. Standard antibiotics were prepared according to CLSI guidelines as 5 mg/mL stock solutions. Upon DMSO stock solutions preparation, the working solutions in MH media were prepared by adding 38.4 μL of stock solution to 1461.6 μL of MH media. Out of these working solutions 100 μL were transferred to wells in the third column of 96-well assay plates. Assay plates were previously filled with 50 μL of MH media in all wells except for the wells in the third column. Upon compounds and antibiotics addition, 50 μL was transferred from the third to the fourth column, then from the fourth to the fifth and so on.
(§3) MIC value was determined by visual inspection of bacterial growth within 96-well plates. The first column in which there was no visible growth of bacteria was determined as MIC value for compound or antibiotic tested in that particular row. ATCC strains were used as reference strains for which there is a determined value of MIC values for standard antibiotics. The assay is considered valid when MIC values for standard antibiotics are within CLSI designated range for ATCC strain tested.

[2] = tested on: Pseudomonas aeruginosa ATCC 27853; test: Study 4 - MIC by broth micro-dilution (CLSI); assay type: cell-based; conditions: Pseudomonas aeruginosa, ATCC27853
Experimental: as §2, §3

[3] = tested on: Acinetobacter baumannii B1931 clinical isolate; test: Study 4 - MIC by broth micro-dilution (CLSI); assay type: cell-based; conditions: Acinetobacter baumannii
Experimental: as §2, §3

[4] = tested on: Enterobacter cloacae B1966 clinical isolate; test: Study 4 - MIC by broth micro-dilution (CLSI); assay type: cell-based; conditions: Enterobacter cloacae
Experimental: as §2, §3

[5] = tested on: Klebsiella pneumoniae ATCC 700603; test: Study 4 - MIC by broth micro-dilution (CLSI); assay type: cell-based; conditions: Klebsiella pneumoniae, ATCC700603
Experimental: as §2, §3

[6] = tested on: Escherichia coli ATCC 25922; test: Study 4 - MIC by broth micro-dilution (CLSI); assay type: cell-based; conditions: Escherichia coli, ATCC25922
Experimental: as §2, §3

[7] = tested on: Escherichia coli ATCC 25922 TolC deficient mutant (E. coli EFFLUX del); test: microbe, parasite or virus in culture; assay type: cell-based; conditions: Escherichia coli, ATCC25922
Experimental: as §2, §3

[8] = Human cell viability (cytotoxicity), ATP levels by CellTiter-Glo; assay type: cell-based; conditions: HepG2 cells (ATCC HB-8065), 24 hours incubation, read-out: IC50 (μg/mL), Cytotoxicity in HepG2 ATCC HB-8065 Cell Line
Experimental: Compounds were assessed for potential non-specific cytotoxic effects against a human hepatic cell line (HepG2 ATCC HB-8065). 96-well plates were seeded with HepG2 cells in concentration of 15,000 cells per well in 100 μL of MEM growth media completed with 1% NEAA and 1% sodium pyruvate. Border wells were filled with 100 μL of sterile PBS. Two days upon cells incubation, the compounds were added. Compound dilutions were prepared in 96-well V-bottom plate in pure DMSO. Growth media from 5 plates were aspirated and replaced with 98.7 μL of fresh growth media. 1.28 μL of compounds prepared in V-bottom plates were transferred with multichannel pipette into test plates (78.1× dilution). Final DMSO concentration was 1.28% per well. In control wells, 1.28 μL of DMSO was added in 98.7 μL of media. Compounds were tested in duplicates. Cells were incubated with compounds for 24 hours when cell viability was assessed by measuring ATP levels. ATP levels were measured by adding 50 μL of CellTiter-Glo reagent to each well and after 5 minutes of incubation luminescence was measured with SpectraMax i3. The potential effect of tested compounds on cell viability was determined by comparing the signal obtained in presence of different concentrations of the compounds with those obtained in the presence of DMSO only. The potential effects were then calculated and presented as IC50 values (μg/mL).

Escherichia Coli LeuRS = Escherichia Coli LeuRS (Escherichia coli (strain K12), UniProt P07813); test: Study 1 - Isothermal titration calorimetry (ITC), separated diastereomers; assay type: binding
Sequence of Escherichia Coli LeuRS (P07813 whole entry): as above
Experimental: The dissociation constants (KD) of the separated diastereomers (V-i) and (V-ii) for binding to Escherichia Coli LeuRS were determined by isothermal titration calorimetry (ITC).
as §1
ITC studies were carried out using a Microcal ITC200 instrument (GE Healthcare). […] The titrations were performed at 25° C. with 10-30 μM E. Coli LeuRS in 50 mM HEPES, 150 mM NaCl, pH 7.5 buffer containing 1% DMSO (v/v). The protein solution in the 200 μL sample cell was titrated with the inhibitor solution (diluted to 100-300 μM in the same buffer as the protein) using 1-2 μL injections every 140 seconds. All titrations were repeated at least three times. To correct for heats of dilution and mixing, the final baseline consisting of small peaks of identical size at the end of each experiment was subtracted. The experimental data were fitted to a theoretical titration curve (one site model) using MicroCal Origin 7 software.

[9] = tested on: wild type E. Coli strain BW25113; test: Study 3 - Antibacterial activity (EC50), dilution susceptibility test M07-A9; assay type: cell-based, Escherichia coli; conditions: for EC50: Escherichia coli
Experimental: The antibacterial activity of the separated diastereomers (V-i) and (V-ii) was determined against wild type E. Coli strain BW25113.
The method described in “Methods for Dilution Antimicrobial Susceptibility Tests for Bacteria that Grow Aerobically; Approved Standard—Ninth Edition” (M07-A9; Vol. 32, No. 2) was used.

[10] = ITC, 25° C., pH 7.5, single replicates 1-3
[11] = ITC, 25° C., pH 7.5, single replicates 1-3, read-out: K (binding constant) (converted)
[12] = read-out: KD (dissociation constant)

Compound | Kd (E. Coli LeuRS) | ΔG (E. Coli LeuRS) | ΔH (E. Coli LeuRS) | MIC [1] | MIC [2] | MIC [3] | MIC [4] | MIC [5] | MIC [6] | MIC [7] | IC50 at 24 h [8] | K (binding constant) (Escherichia Coli LeuRS; [10]) | ΔH (Escherichia Coli LeuRS; [10]) | ΔS (Escherichia Coli LeuRS; [10]) | Kd (Escherichia Coli LeuRS; [11]) | Kd (Escherichia Coli LeuRS; [12]) | EC50 [9] | binding to E. coli LeuRS (in words) (Escherichia Coli LeuRS; ITC) | antibacterial activity (in words) [9]
CC(C)CC(N)C(=O)N[S+]([O-])c1cccc(-c2ccccc2)c1 (centres unmarked) [4.17] | 4.47 ± 0.04 nM | -11.39 ± 0.01 kcal/mol | -9.72 ± 0.22 kcal/mol | > 64 µg/mL | > 64 µg/mL | > 64 µg/mL | > 64 µg/mL | > 64 µg/mL | > 64 µg/mL | 64 µg/mL (≈ 194 µM) | 47.7 µg/mL (≈ 144 µM) | – | – | – | – | – | – | – | –
CNc1cccc([S+]([O-])NC(=O)C(N)CC(C)C)c1 (centres unmarked) [4.22] | 34.5 ± 0.76 nM | -10.17 ± 0.02 kcal/mol | -4.27 ± 0.19 kcal/mol | > 64 µg/mL | > 64 µg/mL | 32 µg/mL (≈ 113 µM) | 32 µg/mL (≈ 113 µM) | 64 µg/mL (≈ 226 µM) | 16 µg/mL (≈ 56.5 µM) | 16 µg/mL (≈ 56.5 µM) | > 64 µg/mL | – | – | – | – | – | – | – | –
CC(C)CC(N)C(=O)N[S+]([O-])c1ccc(F)cc1 (centres unmarked) [4.29] | 9.14 ± 0.3 nM | -10.96 ± 0.01 kcal/mol | -10.95 ± 0.18 kcal/mol | 32 µg/mL (≈ 117 µM) | > 64 µg/mL | 16 µg/mL (≈ 58.7 µM) | 16 µg/mL (≈ 58.7 µM) | 64 µg/mL (≈ 235 µM) | 8 µg/mL (≈ 29.4 µM) | 16 µg/mL (≈ 58.7 µM) | > 64 µg/mL | – | – | – | – | – | – | – | –
CC(C)CC(N)C(=O)N[S+]([O-])c1cccc(C(F)(F)F)c1 (centres unmarked) [4.18] | 6.06 ± 0.49 nM | -11.20 ± 0.06 kcal/mol | -7.03 ± 0.14 kcal/mol | > 64 µg/mL | > 64 µg/mL | > 64 µg/mL | > 64 µg/mL | > 64 µg/mL | 64 µg/mL (≈ 199 µM) | 16 µg/mL (≈ 49.6 µM) | > 64 µg/mL | – | – | – | – | – | – | – | –
CC(C)C[C@H](N)C(=O)N[S@@+]([O-])c1ccccc1 (single isomer, unassigned) [V-ii] | – | – | – | – | – | – | – | – | – | – | – | 83500 M⁻¹ and 77000 M⁻¹ | -5.69 kcal/mol and -5.899 kcal/mol and -6.2 kcal/mol | +3.44 cal/mol/° C. and +2.28 cal/mol/° C. and +1.56 cal/mol/° C. | 15000 nM | 13000 nM | > 128 µg/mL | – | –
COC(=O)c1cccc([S+]([O-])NC(=O)C(N)CC(C)C)c1 (centres unmarked) [4.21] | 6.61 ± 0.83 nM | -11.16 ± 0.07 kcal/mol | -8.23 ± 0.43 kcal/mol | > 64 µg/mL | > 64 µg/mL | > 64 µg/mL | > 64 µg/mL | > 64 µg/mL | 32 µg/mL (≈ 102 µM) | 32 µg/mL (≈ 102 µM) | > 64 µg/mL | – | – | – | – | – | – | – | –
CC(C)C[C@H](N)C(=O)N[S@+]([O-])c1cccc(Cl)c1 [R-4.12] | 1.48 ± 0.08 nM | -11.96 ± 0.12 kcal/mol | -10.75 ± 1.06 kcal/mol | 8 µg/mL (≈ 27.7 µM) | > 64 µg/mL | 32 µg/mL (≈ 111 µM) | 8 µg/mL (≈ 27.7 µM) | 32 µg/mL (≈ 111 µM) | 2 µg/mL (≈ 6.93 µM) | 2 µg/mL (≈ 6.93 µM) | > 64 µg/mL | – | – | – | – | – | – | – | –
CC(C)C[C@H](N)C(=O)N[S@@+]([O-])c1ccccc1 (single isomer, unassigned) [S-4.1] | 9130 ± 2720 nM | -6.89 ± 0.16 kcal/mol | -2.33 ± 0.13 kcal/mol | > 64 µg/mL | > 64 µg/mL | > 64 µg/mL | > 64 µg/mL | > 64 µg/mL | 64 µg/mL (≈ 252 µM) | 64 µg/mL (≈ 252 µM) | > 64 µg/mL | – | – | – | – | – | – | – | –
CC(C)C[C@H](N)C(=O)N[S@+]([O-])c1ccccc1 (single isomer, unassigned) [V-i] | – | – | – | – | – | – | – | – | – | – | – | 2.4e+08 M⁻¹ | – | −7.96 cal/mol/° C. and −12.5 cal/mol/° C. and −7.03 cal/mol/° C. | 6.49 nM and 3.14 nM | 4.6 nM | 4 µg/mL (≈ 15.7 µM) | binds with high affinity | potent antibacterial agent
CC(C)CC(N)C(=O)N[S+]([O-])c1cccc(F)c1F (centres unmarked) [4.34] | 288 ± 42.9 nM | -8.93 ± 0.08 kcal/mol | -9.90 ± 0.40 kcal/mol | 4 µg/mL (≈ 13.8 µM) | 32 µg/mL (≈ 110 µM) | 2 µg/mL (≈ 6.89 µM) | 1 µg/mL (≈ 3.44 µM) | 1 µg/mL (≈ 3.44 µM) | 0.5 µg/mL (≈ 1.72 µM) | 0.25 µg/mL (≈ 0.861 µM) | > 64 µg/mL | – | – | – | – | – | – | – | –
